# Source: US5498522A, “Methods for the use of spermidine/spermine N^1 -acetyltransferase as a prognostic indicator and/or a tumor response marker” (priority 1993, dated 1996)
# Columns and labels:
# [1] = system: spermidine/spermine N^1 -acetyltransferase (SSAT); test: SSAT induction in human tumor xenografts in athymic mice in-vivo; details: for level of induction of SSAT: 40 mg/kg every 8 hours for 5 days, 16 hours after final injection; for Avg. SSAT Activity: measured 24 hours after final treatment (Table 8)
# Description: For the in-vivo treatment, 10^7 cultured MALME-3 melanoma cells were injected subcutaneously into 20 gram female nude athymic mice. After four in-vivo passages, tumor was removed and 40-50 mm^3 fragments were selected for implantation into mice via subcutaneous trocar implantation. Mice developing palpable tumors of a similar size were divided into different treatment groups comprising mice per group. Following treatment of the mice with a dosage approaching the maximally tolerated dose of the respective bis-ethyl spermine analog, the tumor cells comprising the human xenograft were removed and assayed for SSAT induction. […] Also indicated in Table 1, the level of SSAT induction in-vivo by BESPM was less than 20 fold that of BEHSPM, and the level of SSAT induction in-vivo by BENSPM was about 6 fold greater than that of BESPM. Thus, a conclusion from the results depicted in Table 1 is the rank order in effectiveness of the his-ethyl spermine analogs to induce SSAT levels in-vitro correlated well with their effectiveness to induce SSAT levels in-vivo.
# In accordance with the above methods for assaying the induction of SSAT levels in tumor cell lines treated in-vitro and xenografts treated in-vivo, the induction pattern also correlates fairly well amongst different clonal lines of a particular tumor type. This can be illustrated with melanoma clonal lines LOX, SH-1, PANUT-3, and MALME-3.
# In accordance with the above methods for assaying the induction of SSAT levels in tumor cell lines treated in-vitro and xenografts treated in-vivo, the induction pattern also correlates fairly well amongst carcinomas of solid organs. This can be illustrated with malignant clonal lines A121, A549, and HT29.
# Note that the highest drug dosages for each analog approach the maximally tolerated dosage for that particular analog (for example, BEHSPM at 6 mg/kg; BESPM at […]; and BENSPN at 80 mg/kg were tolerated by treated animals, whereas higher doses were toxic). Tumor cells comprising the human xenograft were removed from two animals of each group and assayed for SSAT induction. […] Thus, the antitumor activity for these three analogs correlated with their ability to induce SSAT activity in the same tumor cells growing in-vitro and in-vivo, with the rank order of effectiveness in inducing SSAT levels being: BENSPM>BESPM>BEHSPM (Table 4).
# Additional studies were performed using BENSPM treatment of human xenografts to determine if there exists a correlation between antitumor activity and SSAT induction in-vivo. SSAT activity was measured using cell extracts obtained by sonication, in 5 mMN-2 hydroxypiperazine-N^2 -ethanesulfonic acid (pH 7.2) containing 1 mM dithiothreitol, of tumor biopsy from treated mice, and tumor biopsy from control mice. The cytosolic extract resulting from a 1 hour centrifugation at 35,000 rpm in a Spinco 40 rotor was used as the source of the enzyme for the assay of SSAT activity. The cytosolic extract was incubated with 10 μmol HEPES buffer, pH7.8, 0.15 nmol spermidine, and 0.5 nmol [1-^14 C] acetylCoenzyme A, in a final volume of 50 μl, for 5 minutes at 37° C. The reaction was stopped by chilling, the addition of 20 μl of 0.5 M NH2 OH.Cl, and heating in a boiling water bath for 3 minutes. After centrifugation to remove precipitated protein, 50 μl of the reaction was spotted on a disc of P-81 phosphocellulose and counted for radioactivity. Protein concentration was also measured so that enzyme activity was expressed as picomoles of acetylspermine synthesized per minute per milligram of protein.
# To illustrate this embodiment, SSAT activity was analyzed in tumor tissue and normal tissue from 2 mice following BENSPM treatment of 5 mice at 40 mg/kg, three times daily, for 6 days (Porter et al., 1993, supra). […]
# [2] = tolerated dose / host toxicity in xenograft-bearing mice; details: mouse, in vivo, every 8 hours for 6 days, read-out: tolerated dose (higher doses were toxic)
# Description: […] where 1 represents length; w--width; and h--height. Tumor sizes were monitored 2 times/week until the median volume (V=0.4(a^2 ×b) where a is the smaller of the two perpendicular tumor diameters). As an indication of drug toxicity, animal weights were also recorded at the time of tumor volume measurement. Statistical analyses were performed on mouse tumor size and weight parameters by using the Mann-Whitney test.
# As illustrated in Table 1 with MALME-3 human melanoma cells, the rank order effectiveness of three polyamine analogs in inducing SSAT levels both in-vitro and in-vivo were BENSPM>BESPM>BEHSPM, with substantial differences in induction between them. The same three polyamine analogs were analyzed for their effectiveness in inducing a potent antitumor response in-vivo. Mice developing palpable tumors of a similar size were divided into different treatment groups comprising 5 mice per treatment group, and 10 control mice per treatment group. The treatment groups, and treatment regimen. per group, were as follows: BEHSPM: administered every 8 hours for a 6 day period with group 1 receiving 1.5 mg/kg; group 2 receiving 3.0 mg/kg; and group 3 receiving 6.0 mg/kg.
# BESPM: administered every 8 hours for a 6 day period with group 1 receiving 10 mg/kg; group 2 receiving 20 mg/kg; and group 3 receiving 40 mg/kg.
# BENSPM: administered every 8 hours for a 6 day period with group 1 receiving 20 mg/kg; group 2 receiving 40 mg/kg; and group 3 receiving 80 mg/kg.
# Note that the highest drug dosages for each analog approach the maximally tolerated dosage for that particular analog (for example, BEHSPM at 6 mg/kg; BESPM at 20 mg/kg; and BENSPN at 80 mg/kg were tolerated by treated animals, whereas higher doses were toxic). Tumor cells comprising the human xenograft were removed from two animals of each group and assayed for SSAT induction. […]
# [3] = MALME-3 xenograft, maximally tolerated dose, every 8 hours for 6 days
smiles,measurement,setting,value
"CCNCCCNCCCCNCCCNCC [BESPM, N^1,N^12-bis(ethyl)spermine]",SSAT induction in-vivo relative to BEHSPM,[1]; MALME-3 xenograft,less than 20 fold
same,MTD at 144 h,[2],20 mg/kg
"CCNCCCNCCCNCCCNCC [BENSPM, N^1,N^11 -bis(ethyl)norspermine]",SSAT induction in-vivo,"[1]; A121 xenograft, BENSPM 40 mg/kg 3x/day 6 days, 16 hours post-treatment","2,905 pmol/min/mg"
same,SSAT activity,"[1]; A121 xenograft, measured 24 hours after final treatment (Table 9)",2905 pmol/min/mg
same,SSAT induction in-vivo,"[1]; A549 xenograft, BENSPM 40 mg/kg 3x/day 6 days, 16 hours post-treatment","14,295 pmol/min/mg"
same,SSAT activity,"[1]; A549 xenograft, measured 24 hours after final treatment (Table 9)",14295 pmol/min/mg
same,SSAT induction in-vivo,"[1]; HT29 xenograft, BENSPM 40 mg/kg 3x/day 6 days, 16 hours post-treatment","3,535 pmol/min/mg"
same,SSAT activity,"[1]; HT29 xenograft, measured 24 hours after final treatment (Table 9)",3535 pmol/min/mg
same,level of induction of SSAT,[1]; LOX xenograft,160 pmol/mg/min
same,SSAT induction in-vivo,"[1]; LOX xenograft, BENSPM 40 mg/kg 3x/day 6 days, 16 hours post-treatment",160 (200/115) pmol/min/mg
same,Avg. SSAT Activity,[1]; LOX xenograft,157 pmol/min/mg
same,Avg. SSAT Activity,[1]; MALME-3M xenograft,"13,710 pmol/min/mg"
same,SSAT induction in-vivo relative to BESPM,[1]; MALME-3 xenograft,about 6 fold
same,level of induction of SSAT,[1]; MALME-3 xenograft,"24,018 pmol/mg/min"
same,SSAT induction in-vivo,"[1]; MALME-3 xenograft, BENSPM 40 mg/kg 3x/day 6 days, 16 hours post-treatment (Table 2)","13,710 (11,490/15,930) pmol/min/mg"
same,SSAT induction in-vivo,[1]; [3],"15,700 pmol/min/mg"
same,SSAT activity,"[1]; PANUT-3 tumor, 80 mg/kg, 2 wks post-treatment",130 pmol/min/mg
same,SSAT induction in-vivo,"[1]; PANUT-3 xenograft, BENSPM 40 mg/kg 3x/day 6 days, 16 hours post-treatment","25,575 (23,140/22,010) pmol/min/mg"
same,Avg. SSAT Activity,[1]; PANUT-3 xenograft,"22,750 pmol/min/mg"
same,SSAT induction in-vivo,"[1]; SH-1 xenograft, BENSPM 40 mg/kg 3x/day 6 days, 16 hours post-treatment","7,150 (7,495/6,810) pmol/min/mg"
same,Avg. SSAT Activity,[1]; SH-1 xenograft,"7,150 pmol/min/mg"
same,"SSAT induction, relative","[1]; treated in-vitro and in-vivo, compared to two other analogs",greatest induction of SSAT
same,MTD at 144 h,[2],80 mg/kg
"CCNCCCCNCCCCNCCCCNCC [BEHSPM, N^1,N^14 -bis(ethyl)homospermine]",SSAT induction in-vivo,[1]; [3],125 pmol/min/mg
same,MTD at 144 h,[2],6 mg/kg
